10 compounds from ChEMBL document CHEMBL1201862, “PubChem BioAssay data set” (2004) can be followed below.

Assay in all cases: NCI anticancer screen, dose series, 48 h
For assay [1], the system named is IGROV-1.
The test system of assay [2] is RXF 393.
Assay [3] has as its system COLO 205.
Assay [4] relates to HCT-15.
The test system of assay [5] is 786-0.
For assay [6], the system named is HT-29.
Assay [7] relates to UACC-257.
The test system of assay [8] is NCI-H23.
Assay [9] has as its system SR.
The subject of assay [10] is PC-3.
The subject of assay [11] is SW-620.
The test system of assay [12] is NCI-H522.
Assay [13] relates to UO-31.
Assay [14] deals with OVCAR-4.
Assay [15] concerns CAKI-1.
Assay [16] has as its system DU-145.
Assay [17] concerns HOP-62.
Assay [18] deals with HL-60.
The subject of assay [19] is M14.
Assay [20] relates to RPMI-8226.

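Five compound concentrations were applied to cells in 96-well plates for 48 hours; endpoints were derived by simple linear interpolation of the resulting dose-response curve. GI50 marks 50% less growth.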 Active and inactive are the calls of the source. No stated cut-off is given here; in the data, active = GI50 up to about 1.1 µM and inactive = higher.

On to `O=CC(O)C(O)C1OC(=O)c2cc(O)c(O)c(O)c2C2=C(O)C(O)=C3OC(=O)c4c(c(O)c(O)c5c4C3C2C(=O)O5)-c2c(cc(O)c(O)c2O)C(=O)OCC1O` (stereo not given), for which the GI50 was 51.6 µM (inactive) in assay [1]; > 100 µM (inactive) in assay [2]; 23.2 µM (inactive) in [3]; 20.3 µM in assay [4]; 16.3 µM (inactive) in assay [5]; 15.7 µM (inactive) in [6]. For the same compound, the GI50 is 49.5 µM (inactive) in assay [7]; 78 µM (inactive) in [8]; 24.1 µM (inactive) in assay [9]; 43.7 µM (inactive) in assay [10]; 16.9 µM (inactive) in [11]; 35.6 µM (inactive) in assay [12]. Moreover, the GI50 was 14.7 µM (inactive) in assay [13]; 16.7 µM (inactive) in assay [14]; 18.1 µM (inactive) in [15]; 17.9 µM (inactive) in assay [16]; 72.6 µM (inactive) in assay [17]; 12.3 µM (inactive) in assay [18]. The GI50 in [19] is 22.4 µM (inactive); in [20], 24.5 µM (inactive).
For the compound `COc1cc(C2c3cc4c(cc3OC(N3CCCC3)C2C)OCO4)cc(OC)c1OC` (stereo not given), the GI50 is 0.813 µM (active) in assay [1]; 0.286 µM (active) in assay [2]; 0.433 µM (active) in [3]; 0.526 µM in [4]; 0.729 µM (active) in [5]; 0.395 µM (active) in assay [6]. In addition, the GI50 in assay [7] is 1.07 µM (active); in [8], 0.548 µM (active); in assay [9], 0.32 µM (active); in assay [10] it was 0.524 µM (active); in [11], 0.366 µM (active); in assay [12], 0.548 µM (active). Moreover, the GI50 in [13] was 1.91 µM (inactive); in [14], 2.31 µM (inactive); in assay [15] it was 0.664 µM (active); in assay [16], 0.571 µM (active); in [17], 0.596 µM (active); in [18] it was 0.355 µM (active). In addition, the GI50 in assay [19] was 0.34 µM (active); in [20], 1.08 µM (active).
Take `Cc1ccc(NC(=O)CSc2nc(O)nc3[nH]cnc23)cc1`: the GI50 in assay [1] is > 100 µM (inactive); in [2], > 100 µM (inactive); in [3], > 100 µM (inactive); in assay [4], more than 100 µM; in [5], 44.6 µM (inactive); in assay [6], > 100 µM (inactive). The GI50 was > 100 µM (inactive) in assay [7]; > 100 µM (inactive) in assay [8]; 35.6 µM (inactive) in assay [9]; 97.5 µM (inactive) in [10]; 66.2 µM (inactive) in assay [11]; > 100 µM (inactive) in assay [12]. The GI50 in assay [13] is > 100 µM (inactive); in assay [14] it was > 100 µM (inactive); in assay [15] it was > 100 µM (inactive); in assay [16], > 100 µM (inactive); in assay [17], 48.5 µM (inactive); in [18], > 100 µM (inactive). Moreover, the GI50 in assay [19] is > 100 µM (inactive); in assay [20], 50.5 µM (inactive).
Regarding `Cc1ccc([N+](=O)[O-])cc1S(=O)(=O)Nc1ccc(C2=NN(c3ccc([N+](=O)[O-])cc3[N+](=O)[O-])C(c3ccccc3O)C2)cc1` (stereo not given), the GI50 in assay [1] was 26.4 µM (inactive); in assay [2], 40.6 µM (inactive); in assay [3], 32.4 µM (inactive); in assay [4], 27 µM; in [5], 39.8 µM (inactive); in assay [6], 43.3 µM (inactive). Besides, the GI50 was 25.2 µM (inactive) in assay [7]; 19.6 µM (inactive) in assay [8]; 27.2 µM (inactive) in [9]; 36.4 µM (inactive) in assay [10]; 63.7 µM (inactive) in assay [11]; 21 µM (inactive) in [12]. For the same compound, the GI50 in assay [13] is 24.5 µM (inactive); in [14] it was 31 µM (inactive); in assay [15], 33.8 µM (inactive); in assay [16], 39.1 µM (inactive); in assay [17], 36.3 µM (inactive); in assay [18], 27.4 µM (inactive). Further, the values for the GI50 in [19] and in assay [20] were 34.2 µM (inactive) and 49.1 µM (inactive), respectively.
For the compound `CCCCCCCCCCCCC(=O)OC(c1cnco1)c1nc(C(O)CC(O)C(O)C(C)O)co1` (stereo not given), the GI50 was 0.339 µM (active) in assay [1]; 1.38 µM (inactive) in [2]; 0.273 µM (active) in [3]; 9.44 µM in assay [4]; 0.217 µM (active) in assay [5]; 0.351 µM (active) in [6]. Also, the GI50 was 0.755 µM (active) in [7]; 0.336 µM (active) in assay [8]; < 0.0407 µM (active) in assay [9]; 2.22 µM (inactive) in assay [10]; 0.114 µM (active) in [11]; 0.787 µM (active) in [12]. The GI50 was 8.97 µM (inactive) in assay [13]; 1.3 µM (inactive) in assay [14]; 0.265 µM (active) in assay [15]; > 10 µM (inactive) in assay [16]; 2.65 µM (inactive) in assay [17]; 0.849 µM (active) in [18]. Also, the GI50 was 0.491 µM (active) in assay [19] and 0.273 µM (active) in [20].
Take `CN/N=C(\C)C(CN(C)C)C(c1ccccc1)c1c(O)c2ccccc2oc1=O` (stereo not given): the GI50 in assay [1] was > 100 µM (inactive); in assay [2] it was 0.441 µM (active); in [3], 40.4 µM (inactive); in assay [4], more than 100 µM; in assay [5] it was > 100 µM (inactive); in assay [6], > 100 µM (inactive). The GI50 in assay [7] is > 100 µM (inactive); in [8], > 100 µM (inactive); in assay [9], 67.9 µM (inactive); in [10], > 100 µM (inactive); in assay [11] it was > 100 µM (inactive); in assay [12], > 100 µM (inactive). Moreover, the GI50 in assay [13] is > 100 µM (inactive); in assay [14] it was 99.1 µM (inactive); in assay [15], > 100 µM (inactive); in [16] it was > 100 µM (inactive); in [17], > 100 µM (inactive); in assay [18], 29.7 µM (inactive). Further, the GI50 in [19] was > 100 µM (inactive); in assay [20] it was 42 µM (inactive).
With `N#CC(NCCc1ccccc1)c1ccccc1` (stereo not given), the GI50 in [1] is > 100 µM (inactive); in assay [2] it was > 100 µM (inactive); in assay [3], > 100 µM (inactive); in assay [4], more than 100 µM; in assay [5] it was > 100 µM (inactive); in [6], > 100 µM (inactive). Besides, the GI50 in assay [7], in assay [8], in assay [9], in [10], in assay [11] and in assay [12] was > 100 µM (inactive) in each case. For the same compound, the GI50 in assay [13], in [14], in assay [15], in [16], in assay [17] and in assay [18] was > 100 µM (inactive) throughout. Besides, the GI50 in assay [19] and in [20] was > 100 µM (inactive) each time.
With `CC1OC2(CC(OCc3ccccc3)C1OCc1ccccc1)OCCO2` (stereo not given), the GI50 in [1] is > 100 µM (inactive); in assay [2], 16.4 µM (inactive); in assay [3], 62.1 µM (inactive); in assay [4], 28.2 µM; in assay [5], 61.5 µM (inactive); in assay [6] it was 20.9 µM (inactive). Besides, the GI50 in [7] is 34.8 µM (inactive); in [8] it was 35 µM (inactive); in assay [9] it was 21.1 µM (inactive); in [10], 59.8 µM (inactive); in assay [11] it was 70 µM (inactive); in [12] it was 31.2 µM (inactive). The GI50 is 42.3 µM (inactive) in [13]; 76.7 µM (inactive) in [14]; 63.1 µM (inactive) in [15]; 88.5 µM (inactive) in assay [16]; > 100 µM (inactive) in [17]; 20 µM (inactive) in assay [18]. For the same compound, the figures for the GI50 in assay [19] and in assay [20] were 45.7 µM (inactive) and 35.2 µM (inactive), respectively.
On to `c1nc(N2CC2)c2cnn(C3CCCCO3)c2n1` (stereo not given), for which the GI50 in assay [1] is > 100 µM (inactive); in assay [2] it was > 100 µM (inactive); in assay [3], > 100 µM (inactive); in assay [4], more than 100 µM; in assay [5], > 100 µM (inactive); in [6], > 100 µM (inactive). Moreover, the GI50 in [7], in [8], in assay [9], in [10], in assay [11] and in [12] was > 100 µM (inactive) in each case. In addition, the GI50 in assay [13], in [14], in assay [15], in [16], in assay [17] and in [18] was > 100 µM (inactive) throughout. Also, the GI50 in [19] and in [20] was > 100 µM (inactive) in each case.
As to `COc1cc2c(/C=C3/C(=O)N(c4ccccc4)c4ccccc43)c(Cl)[nH]c2cc1C`, the GI50 in [1] is 2.7 µM (inactive); in assay [2] it was 4.29 µM (inactive); in [3] it was 1.9 µM (inactive); in assay [4], 2.83 µM; in assay [5] it was 3.15 µM (inactive); in assay [6], 3.09 µM (inactive). Besides, the GI50 in assay [7] was 3.82 µM (inactive); in assay [8] it was 2.58 µM (inactive); in [9] it was 3.03 µM (inactive); in assay [10], 2.94 µM (inactive); in assay [11], 2.84 µM (inactive); in assay [12], 1.44 µM (inactive). Also, the GI50 in assay [13] was 2.88 µM (inactive); in assay [14], 2.59 µM (inactive); in assay [15], 3.89 µM (inactive); in [16], 2.89 µM (inactive); in assay [17], 3.07 µM (inactive); in assay [18], 2.31 µM (inactive). The GI50 in assay [19] is 3.18 µM (inactive); in [20] it was 1.34 µM (inactive).
